Laboratory results from PubChem BioAssay (NCI).
Several values for one entry are separate records, joined by “and”; a condition that tells them apart may be missing. Equal values may be shown once.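 Exposure lasted 48 hours, with cells grown in 96-well plates and compounds tested at five concentrations. GI50 is the concentration that inhibits growth by half. TGI is the concentration that stops growth completely.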

Columns and labels:
Assay in all cases: NCI anticancer screen, dose series, 48 h
A549 NSCLC = test system: A549 NSCLC
CAKI-1 renal = test system: CAKI-1 renal
CCRF-CEM leukemia = test system: CCRF-CEM leukemia
COLO 205 colon = test system: COLO 205 colon
K-562 leukemia = test system: K-562 leukemia
KM12 colon = test system: KM12 colon
NCI-H226 lung = test system: NCI-H226 lung
NCI-H460 lung = test system: NCI-H460 lung
SF-539 CNS = test system: SF-539 CNS
SK-OV-3 ovarian = test system: SK-OV-3 ovarian

Row | SMILES | TGI (A549 NSCLC) | TGI (CAKI-1 renal) | TGI (CCRF-CEM leukemia) | TGI (COLO 205 colon) | TGI (K-562 leukemia) | TGI (KM12 colon) | TGI (NCI-H226 lung) | TGI (NCI-H460 lung) | TGI (SF-539 CNS) | TGI (SK-OV-3 ovarian) | GI50 (A549 NSCLC) | GI50 (CAKI-1 renal) | GI50 (CCRF-CEM leukemia) | GI50 (COLO 205 colon) | GI50 (K-562 leukemia) | GI50 (KM12 colon) | GI50 (NCI-H226 lung) | GI50 (NCI-H460 lung) | GI50 (SF-539 CNS) | GI50 (SK-OV-3 ovarian)
1 | COC1C(O)C(C)OC(O[C@@H]2C[C@H]3CC[C@@H]4[C@H](CC[C@]5(C)[C@@H](C6=CC(=O)OC6)CC[C@]45O)[C@@]3(C)[C@H](O)C2)C1O (some centres not stated) | < 0.0462 µM | 0.0215 µM | > 100 µM | 1.05 µM | 0.457 µM | 1.8 µM | 0.532 µM | 0.0222 µM | 0.0249 µM | 0.347 µM |  |  |  |  |  |  |  |  |  | 
2 | CCC(=O)c1c(C(F)(F)F)n([O-])c2ccccc2[n+]1=O | 11.4 µM | 6.03 µM | 10.5 µM | 6.51 µM | 33.3 µM | 5.86 µM | 9.06 µM | 2.6 µM | 10.2 µM | 14 µM | 2.3 µM | 1.54 µM | 0.621 µM | 2.06 µM | 1.35 µM | 1.86 µM | 2.09 µM | 0.695 µM | 2.81 µM | 3.05 µM
3 | O=C(NC1C=Nc2ccccc2NC1=O)c1ccccc1Cl (configuration not stated) | > 100 µM | > 100 µM | > 100 µM | 52.7 µM | 52.7 µM | > 100 µM | > 100 µM | > 100 µM | > 100 µM | > 100 µM |  |  |  |  |  |  |  |  |  | 
4 | CCN(CC)CCC(=O)O[C@H]1CC[C@H](CC(C)[C@H]2CC(=O)C(C)C=C(C)[C@H](OC(=O)CCN(CC)CC)C(OC)C(=O)[C@@H](C)CC(C)/C=C/C=C/C=C(C)C(OC)CC3CC[C@H](C)[C@](O)(O3)C(=O)C(=O)N3CCCCC3C(=O)O2)CC1OC (some centres not stated) | 7.54 µM and 9.53 µM | 3.06 µM | > 10 µM and 1.57 µM | 2.8 µM and 2.49 µM | 5.2 µM and 3.65 µM | > 10 µM and 2.03 µM | 3.68 µM and 3.34 µM | 3.48 µM and 2.69 µM | 1.99 µM and 1.81 µM | 5.53 µM |  |  |  | 1.04 µM |  |  | 1.21 µM | 0.292 µM and 1.34 µM |  | 
5 | CCCCN(CCCC)CCC(O)c1cc2ccc(C(F)(F)F)cc2c2cc(C(F)(F)F)ccc12 (configuration not stated) | 12.1 µM | 9.01 µM | 8.96 µM | 3.33 µM | 5.59 µM | 9.24 µM | 10.5 µM | 4.09 µM | 5.44 µM | 15.3 µM | 3.12 µM | 2.61 µM | 2.96 µM | 1.62 µM | 2.06 µM | 2.93 µM | 2.88 µM | 1.84 µM | 2.04 µM | 3.98 µM
6 | O=C1NN=C(c2ccc([N+](=O)[O-])cc2)C1n1nc(-c2ccccc2)c2ccccc2c1=O (configuration not stated) | > 100 µM | > 100 µM | > 100 µM | > 100 µM | > 100 µM | > 100 µM | > 100 µM | > 100 µM | > 100 µM | > 100 µM |  |  |  |  |  |  |  |  |  | 
7 | COc1cc(/C=C\c2ccc(Cl)cc2)cc(OC)c1OC | > 100 µM | 47.4 µM | 3.96 µM | > 36.3 µM | > 44.2 µM | > 100 µM | 6.84 µM | > 100 µM | 0.564 µM | 89.3 µM |  |  |  |  |  |  |  |  |  | 
8 | CC(=O)n1c(-c2ccc(Cl)c(Cl)c2)cn(-c2ccc(Cl)cc2)c1=O | > 100 µM | 43.9 µM | 38 µM | > 100 µM | 80.5 µM | > 100 µM | 74.5 µM | > 100 µM | 31.9 µM | 44.1 µM | 39.3 µM | 20.8 µM | 16.8 µM | 53 µM | 24.1 µM | 67 µM | 24.3 µM | 30.8 µM | 14.1 µM | 19.2 µM
9 | Cc1c(C(N)=O)sc2c1c(=O)n(Cc1ccccc1)c1nnc(S(=O)(=O)CC(=O)Nc3ccc(Cl)cc3)n21 | 6.04 µM | 11.8 µM | 43.1 µM | 27.5 µM | 55.2 µM | 16.2 µM | 19.8 µM | 7.64 µM | 6.5 µM | 7.81 µM | 2.3 µM | 2.94 µM | 10.9 µM | 10.7 µM | 15 µM | 4.54 µM | 4.83 µM | 2.87 µM | 2.75 µM | 3.24 µM
10 | CC1=NN(c2ccccc2)C(=O)C1N=Nc1ccc(S(N)(=O)=O)cc1 (configuration not stated) | > 100 µM | > 100 µM | > 100 µM | > 100 µM | > 100 µM | > 100 µM | > 100 µM | > 100 µM | > 100 µM | > 100 µM |  |  |  |  |  |  |  |  |  | 
11 | Nc1ccccc1C#C/C=C\C#Cc1ccccc1F | 95.8 µM | 9.36 µM | 7.14 µM | 34.1 µM | > 100 µM | 11 µM | 33.3 µM | 21.2 µM | 15.7 µM | 46 µM | 10 µM | 2.89 µM | 0.729 µM | 10.3 µM | 3.38 µM | 2.1 µM | 15.2 µM | 6.17 µM | 3.82 µM | 16.7 µM
12 | COc1ccc2c(c1)C=C1CSCC3=Cc4cc(OC)ccc4OC13O2 | > 100 µM | > 100 µM | > 85.3 µM | 0.917 µM | > 100 µM | > 100 µM | > 100 µM | > 100 µM | 0.816 µM | > 100 µM | 0.492 µM | 0.41 µM | 0.328 µM | 0.292 µM | 0.228 µM | 0.513 µM |  | 0.387 µM | 0.254 µM | 0.671 µM
13 | CN(C)C(=S)SCC(N)=O | > 100 µM | > 100 µM | > 100 µM | > 100 µM | > 100 µM | > 100 µM | > 100 µM | > 100 µM | > 100 µM | > 100 µM |  |  |  |  |  |  |  |  |  | 
